Where two headings read alike, the source gives them in different places.
Experiments:
[1] = test system: rat isolated bladder; test: Test Example 3: effect on electrical field stimulation-induced contraction in rat isolated bladder; details: 10 μM test substance; AUC of contraction, value before treatment = 100%; SD female rat bladder
Experimental: Test Example 3: Effect on Electrical Field Stimulation-Induced Contraction in Rat Isolated Bladder
As an effect on the nerve stimulation-dependent bladder contraction in in vitro, the effect of the Example compounds of the present invention in the electrical field stimulation-induced contraction of the rat isolated bladder was measured by the following method. That is, a bladder specimen having a width of about 2 mm and a length of about 10 mm in the longitudinal direction from the bladder isolated from a Sprague-Dawley (SD) female rat (Japan SLC, Inc.) was prepared. The prepared bladder specimen was suspended in an organ bath filled with 10 mL of a Krebs-Henseleite solution. The Krebs-Henseleite solution was aerated at 95% 02 and 5% CO2, and kept at 37° C. After carrying out stabilization at an initial tension of 1 g, the contraction was caused twice with 60 mM KCl. After stabilization of the specimen with a Krebs-Henseleite solution, the contraction was caused by carrying out electrical field stimulation at 20 V with an electrical stimulation device (Nihon Kohden) (a stimulation frequency of 8 Hz, a pulse width of 0.3 msec, and a stimulation time of 10 seconds). By repeating the transmural electrical stimulation at an interval of 2 minutes, a voltage was adjusted to obtain a contraction height of approximately 50% of the contractile response at 20 V. After the contraction by electrical field stimulation had been stabilized, 10 μL of the test substances dissolved in 100% dimethyl sulfoxide in advance (final concentrations of 3 μM, 10 μM, and 30 μM) was added thereto. The test substances were cumulatively administered at the following concentrations after the low-concentration contractile response had been stabilized. The response was taken into a personal computer through a PowerLab (registered trademark) (AD Instruments, Inc.), and analyzed by LabChart (registered trademark) (AD Instruments, Inc.). When the area under the response (area under curve, AUC) in each contraction response was calculated and the value before treatment with the test substance was taken as 100%, the enhancement rate (% of pre) of the isolated bladder contractions after treatment with the test substance was calculated.

[2] = molecular target: T1, human muscarinic M3 receptor (Homo sapiens, UniProt P20309); test: Test Example 1: muscarinic M3 receptor positive allosteric modulator activity (shift of carbachol concentration-response curve, intracellular Ca2+, FLIPR); details: carbachol EC50 without / with test substance, CHO-K1 cells expressing human M3; for muscarinic M3 receptor-positive allosteric modulator activity, 1 μM (-fold shift): test substance 1 μM; for muscarinic M3 receptor-positive allosteric modulator activity, 10 μM (-fold shift): test substance 10 μM
T1 sequence (P20309 whole entry): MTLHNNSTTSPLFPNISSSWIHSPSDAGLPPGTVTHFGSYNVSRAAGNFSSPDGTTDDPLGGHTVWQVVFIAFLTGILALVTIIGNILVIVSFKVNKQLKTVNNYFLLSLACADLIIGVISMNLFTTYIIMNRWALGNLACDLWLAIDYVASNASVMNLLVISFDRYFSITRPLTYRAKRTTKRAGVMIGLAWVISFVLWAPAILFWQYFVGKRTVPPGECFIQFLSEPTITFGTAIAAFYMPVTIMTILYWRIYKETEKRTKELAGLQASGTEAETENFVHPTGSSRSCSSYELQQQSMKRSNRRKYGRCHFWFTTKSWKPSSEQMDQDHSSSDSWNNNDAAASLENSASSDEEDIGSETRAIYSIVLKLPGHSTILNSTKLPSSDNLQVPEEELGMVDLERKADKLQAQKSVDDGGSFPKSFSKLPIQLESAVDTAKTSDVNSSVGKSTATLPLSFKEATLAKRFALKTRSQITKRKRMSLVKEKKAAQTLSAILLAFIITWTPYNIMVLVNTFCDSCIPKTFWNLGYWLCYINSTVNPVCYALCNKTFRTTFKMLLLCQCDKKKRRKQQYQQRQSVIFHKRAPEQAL
Description: (§1) Test Example 1: Evaluation of Muscarinic M3 Receptor Positive Allosteric Modulator Activity
(§2) a) Construction of Vector Expressing Human Muscarinic M3 Receptor
(§3) A human muscarinic M3 receptor gene (GenBank Accession No.: NM_000740.2) was introduced into an expression vector pcDNA3.1™ (Life Technologies).
(§4) b) Construction of Cells Stably Expressing Human Muscarinic M3 Receptor
(§5) A vector expressing a human muscarinic M3 receptor was introduced into a CHO—K1 cell (ATCC No.: CCL-61). The introduction was carried out according to the attached instructions, using a transfection reagent, Lipofectoamine (registered trademark) 2000 Reagent (Life Technologies). The cells were incubated in an alpha Modified Eagle Minimum Essential Medium (α-MEM) including 2 mM glutamine, 10% fetal bovine serum, and 2.0 mg/mL Geneticin (registered trademark) (Life Technologies) for 4 weeks to acquire a drug-resistant clone.
(§6) c) Measurement of Intracellular Ca^2+ Concentration
(§7) The cells obtained in b) above were suspended in an α-MEM including 2 mM glutamine, 10% fetal bovine serum, and 0.2 mg/mL Geneticin (registered trademark) to the amount from 1.2 to 1.5×10^4 cells/well the day before the experiment, dispensed into a 384-well plate (Model No. 355962, BD Biosciences), and incubated overnight at 37° C. and 5% CO2. The medium was replaced with a loading buffer (an assay buffer (Hank's balanced salt solution (HBSS), 1 g/L BSA, 20 mM HEPES (pH 7.5), and 2.5 mM probenecid), including 3.1 μM Fluo 4-AM (Dojindo Laboratories) and incubated for about 2 hours at room temperature. Thereafter, the cells were washed with a plate washer ELx405™ (BIO-TEK Instrument, Inc.) set with the assay buffer, and set in an intracellular Ca^2+ concentration measuring system (FLIPR^tetra (registered trademark), Molecular Device Co.). The test substances (final concentration of 1 μM or 10 μM) and carbachol (Sigma, final concentration of 0.0024 nM to 10 μM) which had each been dissolved in the assay buffer in advance were set in a FLIPR^tetra (registered trademark). The test substances were added to the cells in the device and after about 5 minutes, carbachol was added to the cells. An increase rate of the intracellular Ca^2+ concentration by carbachol was measured (excitement wavelength of 470 nm to 495 nm and a fluorescence wavelength of 515 nm to 575 nm).
(§8) For the muscarinic M3 receptor-positive allosteric modulator activity, a shift toward a lower concentration side of a carbachol concentration-response curve by the test substance was used as an index. […] For example, when the EC50 value of carbachol in the absence of the test substance was 0.1 μM and the EC50 value of carbachol in the presence of the test substance was 0.01 μM, the value of the muscarinic M3 receptor-positive allosteric modulator activity becomes 10, showing that the test substance causes a 10-fold shift in the EC50 value toward to the low concentration side.

[3] = molecular target: T1, human muscarinic M3 receptor
Description: as §1, §2, §3, §4, §5, §6, §7, §8

SMILES	muscarinic M3 receptor-positive allosteric modulator activity, 1 μM (-fold shift) [2]	muscarinic M3 receptor-positive allosteric modulator activity, 10 μM (-fold shift) [2]	muscarinic M3 receptor-positive allosteric modulator activity, 1 μM (-fold shift) [3]	muscarinic M3 receptor-positive allosteric modulator activity, 10 μM (-fold shift) [3]	Enhancement rate (% of pre) of isolated bladder contractions [1]
C[C@@H]1CCCN1Cc1sc(NC(=O)c2cnc(N3CCN(CCC(=O)[O-])CC3)cn2)nc1-c1cc(C#N)cc(C(F)(F)F)c1.[Na+] [Example 34]	18 -fold shift	116 -fold shift	–	–	137 % of pre
CCC[C@@H]1CCCN1Cc1sc(NC(=O)c2cnc(N3CCN(CCC(=O)[O-])CC3)cn2)nc1-c1cccc(C(F)(F)F)c1.[Na+] [Example 124]	28 -fold shift	101 -fold shift	–	–	132 % of pre
C[C@@H]1CCCN1Cc1sc(NC(=O)c2cnc(N3CCN(CC(=O)O)C[C@H]3C)cn2)nc1-c1cc(F)cc(C(F)(F)F)c1 [Example 141]	–	–	45 -fold shift	159 -fold shift	121 % of pre

Further lines, with some results ahead:

muscarinic M3 receptor-positive allosteric modulator activity, 1 μM (-fold shift) [2]	muscarinic M3 receptor-positive allosteric modulator activity, 10 μM (-fold shift) [2]	muscarinic M3 receptor-positive allosteric modulator activity, 1 μM (-fold shift) [3]	muscarinic M3 receptor-positive allosteric modulator activity, 10 μM (-fold shift) [3]	SMILES	Enhancement rate (% of pre) of isolated bladder contractions [1]
–	–	30 -fold shift	164 -fold shift	CCOc1ccc(-c2nc(NC(=O)c3cnc(N4CCN(CCC(=O)O)C[C@H]4C)cn3)sc2CN2CCC[C@H]2CC)cc1C(F)(F)F [Example 133]	151 % of pre
–	–	25 -fold shift	204 -fold shift	CC[C@@H]1CCCN1Cc1sc(NC(=O)c2cnc(N3CCN(CCC(=O)O)C[C@H]3C)cn2)nc1-c1ccc(OC(C)C)c(C(F)(F)F)c1 [Example 135]	139 % of pre
–	–	28 -fold shift	158 -fold shift	C[C@@H]1CCCN1Cc1sc(NC(=O)c2cnc(N3CCN(CCC(=O)O)C[C@H]3C)cn2)nc1-c1cc(F)cc(C(F)(F)F)c1 [Example 140]	161 % of pre
–	–	52 -fold shift	160 -fold shift	C[C@@H]1CCCN1Cc1sc(NC(=O)c2cnc(N3CCN(CCC(=O)O)[C@@H](C)C3)cn2)nc1-c1cc(Cl)cs1 [Example 142]	196 % of pre
–	–	65 -fold shift	81 -fold shift	CC[C@@H]1CCCN1Cc1sc(NC(=O)c2cnc(N3CCN(CCC(=O)O)[C@H](C)C3)cn2)nc1-c1cc(Cl)cs1 [Example 143]	140 % of pre
